Source: PubChem BioAssay AID330 (DTP/NCI, 2004)
Values joined by “and” are separate entries in the source; they are usually repeats but may differ in a detail not shown here. Equal values may be shown once. Inconclusive results and toxic doses are left out. How the source made its calls: active means survival T/C of 150% or more; inactive means T/C below 125% in these data.

Test system: P388 leukemia ip, CD2F1 mice, survival T/C
Assay: NCI In Vivo Anticancer Drug Screen. Data for tumor model P388 Leukemia (intraperitoneal) in CD2F1 (CDF1) mice
Details: endpoint: median survival time, higher = longer survival
Procedure, shortened: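 Mice carrying the transplanted tumor received test compound or vehicle. Survival was recorded in each group, and the value is the treated-group measurement divided by that of the vehicle-treated control group.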

[1] = dose: 50.0 mg/kg/injection, schedule: Q01DX009 (ip), vehicle: saline with Tween-80
[2] = dose: 100.0 mg/kg/injection, schedule: Q01DX009 (ip), vehicle: saline with Tween-80
[3] = dose: 50.0 mg/kg/injection, schedule: Q01DX005 (ip), vehicle: Klucel (hydroxypropylcellulose) (HPC)
[4] = dose: 100.0 mg/kg/injection, schedule: Q01DX005 (ip), vehicle: Klucel (hydroxypropylcellulose) (HPC)
[5] = dose: 200.0 mg/kg/injection, schedule: Q01DX005 (ip), vehicle: Klucel (hydroxypropylcellulose) (HPC)
[6] = dose: 50.0 mg/kg/injection, schedule: Q01DX005 (ip), vehicle: saline with Tween-80
[7] = dose: 100.0 mg/kg/injection, schedule: Q01DX005 (ip), vehicle: saline with Tween-80
[8] = dose: 200.0 mg/kg/injection, schedule: Q01DX005 (ip), vehicle: saline with Tween-80
[9] = dose: 50.0 mg/kg/injection, schedule: Q01DX009 (ip), vehicle: Klucel (hydroxypropylcellulose) (HPC)
[10] = dose: 100.0 mg/kg/injection, schedule: Q01DX009 (ip), vehicle: Klucel (hydroxypropylcellulose) (HPC)
[11] = dose: 200.0 mg/kg/injection, schedule: Q01DX009 (ip), vehicle: Klucel (hydroxypropylcellulose) (HPC)
[12] = dose: 100.0 mg/kg/injection, schedule: Q04DX002 (ip), vehicle: saline with Tween-80
[13] = dose: 200.0 mg/kg/injection, schedule: Q04DX002 (ip), vehicle: saline with Tween-80
[14] = dose: 400.0 mg/kg/injection, schedule: Q04DX002 (ip), vehicle: saline with Tween-80
[15] = dose: 25.0 mg/kg/injection, schedule: Q01DX005 (ip), vehicle: Klucel (hydroxypropylcellulose) (HPC)
[16] = dose: 50.0 mg/kg/injection, schedule: Q01DX005 (ip), vehicle: saline
[17] = dose: 100.0 mg/kg/injection, schedule: Q01DX005 (ip), vehicle: saline

Measured: T/C

O=c1cc(Br)[nH]c(=O)o1
inactive: dose: 25.0 mg/kg/injection, schedule: Q01DX009 (ip), vehicle: saline with Tween-80 91 % of control | [1] 97 % of control | [2] 92 % of control

CN(C)C(=S)SSC(C)(C)C
inactive: [3] 100 % of control | [4] 99 % of control | [5] 100 % of control

CSc1nc(N)n2nc(C3CC3)cc2n1
inactive: dose: 60.0 mg/kg/injection, schedule: Q01DX005 (ip), vehicle: saline with Tween-80 102 % of control | dose: 120.0 mg/kg/injection, schedule: Q01DX005 (ip), vehicle: saline with Tween-80 100 % of control | dose: 240.0 mg/kg/injection, schedule: Q01DX005 (ip), vehicle: saline with Tween-80 100 % of control

BrCC(Br)=C(Br)Br
inactive: dose: 3.12 mg/kg/injection, schedule: Q01DX009 (ip), vehicle: saline with Tween-80 104 % of control | dose: 6.25 mg/kg/injection, schedule: Q01DX009 (ip), vehicle: saline with Tween-80 106 % of control | dose: 12.5 mg/kg/injection, schedule: Q01DX009 (ip), vehicle: saline with Tween-80 98 % of control

COC(=O)C1=CO[C@@H](OC2OC(CO)C(O)C(O)C2O)[C@@H]2[C@@H](C)[C@@H](O)C[C@H]12 (stereo partly drawn)
inactive: dose: 1.13 mg/kg/injection, schedule: Q01DX005 (ip), vehicle: water 100 % of control | dose: 2.25 mg/kg/injection, schedule: Q01DX005 (ip), vehicle: water 99 % of control | dose: 4.5 mg/kg/injection, schedule: Q01DX005 (ip), vehicle: water 93 % of control | dose: 9.0 mg/kg/injection, schedule: Q01DX005 (ip), vehicle: water 95 % of control

CN(C)c1ccc(/C=N/NC(=O)CNC(=O)n2ccnc2)cc1
inactive: [6] 99 % of control | [7] 94 % of control | [8] 94 % of control

O=C1Nc2ccccc2S/C1=C/c1ccccc1
inactive: dose: 50.0 mg/kg/injection, schedule: Q01DX009 (ip), vehicle: gum acacia 109 % of control | dose: 100.0 mg/kg/injection, schedule: Q01DX009 (ip), vehicle: gum acacia 113 % of control | dose: 200.0 mg/kg/injection, schedule: Q01DX009 (ip), vehicle: gum acacia 97 % of control

Cc1cc(Cl)c2c(c1N)C(=O)c1ccccc1C2=O
inactive: [3] 97 % of control | [4] 96 % of control | [5] 98 % of control

CCOC(=O)C1(COS(=O)(=O)c2ccc(C)cc2)C(=O)Nc2ccccc21 (stereo not drawn)
inactive: [9] 100 % of control | [10] 100 % of control | [11] 97 % of control

Oc1cc(-c2ccc(Cl)cc2)c(O)cc1CN1CCOCC1
inactive: [12] 92 % of control | [13] 91 % of control | [14] 92 % of control

CCSc1nc2ccc(N=Cc3ccc(NS(=O)(=O)c4ccccc4)cc3O)cc2s1
inactive: [9] 116 % of control | [10] 103 % of control

COc1ccc(C#N)cc1OC
inactive: dose: 6.25 mg/kg/injection, schedule: Q01DX009 (ip), vehicle: saline 99 % of control | dose: 12.5 mg/kg/injection, schedule: Q01DX009 (ip), vehicle: saline 108 % of control | dose: 25.0 mg/kg/injection, schedule: Q01DX009 (ip), vehicle: saline 92 % of control | dose: 50.0 mg/kg/injection, schedule: Q01DX009 (ip), vehicle: saline 92 % of control

COc1cc(CCN(C)C)c(C2C(=O)c3ccc4c(c3C2=O)OCO4)cc1OC (stereo not drawn)
inactive: dose: 0.15 mg/kg/injection, schedule: Q01DX005 (ip), vehicle: Klucel (hydroxypropylcellulose) (HPC) 103 % of control | dose: 0.3 mg/kg/injection, schedule: Q01DX005 (ip), vehicle: Klucel (hydroxypropylcellulose) (HPC) 104 % of control | dose: 0.6 mg/kg/injection, schedule: Q01DX005 (ip), vehicle: Klucel (hydroxypropylcellulose) (HPC) 100 % of control | dose: 1.2 mg/kg/injection, schedule: Q01DX005 (ip), vehicle: Klucel (hydroxypropylcellulose) (HPC) 99 % of control

C1OCOCO1
inactive: [15] 98 % of control | [3] 95 % of control | [4] 95 % of control | [5] 109 % of control | dose: 400.0 mg/kg/injection, schedule: Q01DX005 (ip), vehicle: Klucel (hydroxypropylcellulose) (HPC) 101 % of control

COc1cc(OC2OC(CO)C(O)C(O)C2O)ccc1/C=C\C(=O)c1ccc(OC2OC(CO)C(O)C(O)C2O)cc1 (stereo not drawn)
inactive: [12] 91 % of control | [13] 96 % of control | [14] 96 % of control

NC(CCCNc1ccc(O)cc1)C(=O)O (stereo not drawn)
inactive: [16] 100 % of control | [17] 99 % of control and 104 % of control | dose: 200.0 mg/kg/injection, schedule: Q01DX005 (ip), vehicle: saline 98 % of control

O=C(Nc1nnc(-c2cc(=O)c3cc(Cl)ccc3o2)s1)c1ccccc1
inactive: [6] 92 % of control | [7] 87 % of control and 88 % of control | [8] 99 % of control and 89 % of control

O=C(Nc1ccc(OCC2=NCCN2)cc1)c1ccc(C(=O)Nc2ccc(OCC3=NCCN3)cc2)cc1
inactive: [6] 108 % of control | [7] 103 % of control | [8] 105 % of control

CCOC(=O)c1cc(NC(C)=O)cn1C
inactive: [1] 102 % of control | [2] 104 % of control | dose: 200.0 mg/kg/injection, schedule: Q01DX009 (ip), vehicle: saline with Tween-80 103 % of control

Cc1cccc(C)c1N=O
inactive: [9] 122 % of control and 124 % of control | [11] 87 % of control

CCC1OC(OC)C=CC1=O (stereo not drawn)
inactive: dose: 12.5 mg/kg/injection, schedule: Q01DX005 (ip), vehicle: Klucel (hydroxypropylcellulose) (HPC) 113 % of control | dose: 12.5 mg/kg/injection, schedule: Q01DX005 (ip), vehicle: saline 101 % of control | [15] 114 % of control | dose: 25.0 mg/kg/injection, schedule: Q01DX005 (ip), vehicle: saline 108 % of control | [3] 124 % of control | [16] 98 % of control | [17] 104 % of control

CN1C(=O)C2CC(O)C(SC3CC4C(=O)N(C)C(=O)C4CC3O)CC2C1=O (stereo not drawn)
inactive: dose: 25.0 mg/kg/injection, schedule: Q01DX009 (ip), vehicle: water 98 % of control | dose: 50.0 mg/kg/injection, schedule: Q01DX009 (ip), vehicle: water 100 % of control | dose: 100.0 mg/kg/injection, schedule: Q01DX009 (ip), vehicle: water 98 % of control | dose: 200.0 mg/kg/injection, schedule: Q01DX009 (ip), vehicle: water 98 % of control

N#[N+]c1ccc2c(S(=O)(=O)Oc3ccc(C(=O)c4ccccc4)c(OS(=O)(=O)c4cccc5c([O-])c([N+]#N)ccc45)c3)cccc2c1[O-]
inactive: dose: 12.5 mg/kg/injection, schedule: Q01DX005 (ip), vehicle: saline with Tween-80 110 % of control | dose: 25.0 mg/kg/injection, schedule: Q01DX005 (ip), vehicle: saline with Tween-80 107 % of control | [6] 105 % of control and 107 % of control

C=CCN1C(SC)=NC(=O)C1(c1ccccc1)c1ccccc1
inactive: [3] 100 % of control | [4] 104 % of control | [5] 102 % of control

CCCCNC(=O)C1CC2c3cccc4c3c(cn4C)CC2N(C)C1 (stereo not drawn)
inactive: dose: 25.0 mg/kg/injection, schedule: Q01DX001 (ip), vehicle: saline 102 % of control | dose: 50.0 mg/kg/injection, schedule: Q01DX001 (ip), vehicle: saline 105 % of control

C1=C(c2ccccc2)OC(c2ccccc2)=C[P+]1(c1ccccc1)c1ccccc1
inactive: dose: 1.56 mg/kg/injection, schedule: Q01DX005 (ip), vehicle: saline with Tween-80 105 % of control | dose: 3.12 mg/kg/injection, schedule: Q01DX005 (ip), vehicle: saline with Tween-80 120 % of control | dose: 6.25 mg/kg/injection, schedule: Q01DX005 (ip), vehicle: saline with Tween-80 97 % of control

CN1C(=O)[C@@H]2N(N(C)C1=O)[C@@]1(Br)C(=O)NC(=O)[C@@]21Br
inactive: dose: 60.0 mg/kg/injection, schedule: Q01DX005 (ip), vehicle: Klucel (hydroxypropylcellulose) (HPC) 97 % of control | dose: 120.0 mg/kg/injection, schedule: Q01DX005 (ip), vehicle: Klucel (hydroxypropylcellulose) (HPC) 100 % of control | dose: 240.0 mg/kg/injection, schedule: Q01DX005 (ip), vehicle: Klucel (hydroxypropylcellulose) (HPC) 91 % of control
